Source: patent US11879140B2, “P21 mRNA targeting DNAzymes” (1E Therapeutics Ltd., priority 2020, dated 2024)

These substances were tested on human p21 mRNA (assay: In vitro cleavage assay of human p21 mRNA). Conditions: in vitro cleavage of p21 mRNA (SEQ ID NO: 1); RNA substrate 500 nM, 37° C. 60 min, agarose gel.
Assay type: biochemical
Source text: Total RNA was isolates from senescent IMR-90 cells using Nucleospin® RNA kit (Macherey-Nagel™). cDNA was synthesized with gene-specific reverse primers using M-MLV Reverse Transcriptase (Promega), according to the manufacturer's protocol. To generate template for in vitro transcription (IVT) reaction, the cDNA was PCR amplified using KAPA Taq EXtra HotStart® ReadyMix™ PCR Kit (R&D). PCR product was run on 1.5% agarose TAE gel, the correct band size was cut and DNA was cleaned using Wizard® SV Gel and PCR Clean-Up System kit (Promega). IVT was performed using HiScribe™ T7 High Yield RNA Synthesis Kit (NEB). Samples were then treated with DNase I (New England Biolabs) and incubated for 15 minutes at 37° C. IVT product was run on 1.5% agarose TBE gel, the correct band size was cut and RNA was cleaned using QIAquick® Gel Extraction Kit (Qiagen). See primer sequences in Table 1, below.
RNA substrate was diluted with Molecular Biology Grade Water (Biological Industries) and used in in vitro cleavage assay. A 20 μl reaction system comprising RNA substrate (final concentration 500 nM), 2 μl 10× reaction buffer (50 mM Tris-HCl pH 7.4, 100 mM NaCl, 10 mM MgCl2) and 1 μl DNAzyme (10 μM) (as depicted in Table 2, below) was mixed. Reactions were incubated at 37° C. for 60 min. 2×RNA L.D. (Thermo Fisher) was added to each sample. Samples were heated at 70° C. for 30 sec, centrifuged and loaded onto 1.5% agarose TBE gels. Quantification was performed using Image Lab software (Bio Rad).

Q: For “DNAzyme 354: SEQ ID NO: 23: CGGTTCTGAggctagctacaacgaATGGCGCCT (DNA CGGTTCTGAGGCTAGCTACAACGAATGGCGCCT; DNA, backbone and methylation of C not given here)”, which Validated cleavage is on record?
A: validated for mediating cleavage of p21 mRNA

Q: “DNAzyme 495: SEQ ID NO: 29: GAAGTTCCAggctagctacaacgaCGCTCACGG (DNA GAAGTTCCAGGCTAGCTACAACGACGCTCACGG; DNA, backbone and methylation of C not given here)” was tested. Which Validated cleavage did it give?
A: validated for mediating cleavage of p21 mRNA

Q: With “DNAzyme 541: SEQ ID NO: 30: GCUCCCAGGggctagctacaacgaGAAGUCACC (DNA GCUCCCAGGGGCTAGCTACAACGAGAAGUCACC; DNA, backbone, methylation of C and T or U not given here)” as the substance, how does the Validated cleavage read?
A: validated for mediating cleavage of p21 mRNA

Q: “DNAzyme 846: SEQ ID NO: 33: GTGGGCGGAggctagctacaacgaTAGGGCTTC (DNA GTGGGCGGAGGCTAGCTACAACGATAGGGCTTC; DNA, backbone and methylation of C not given here)” was tested. Which Validated cleavage did it give?
A: validated for mediating cleavage of p21 mRNA

Q: How did the Validated cleavage turn out when “DNAzyme 857: SEQ ID NO: 34: GCAGGCTTtccgagccggacgaTGTGGGCGG (GCAGGCTTTCCGAGCCGGACGATGTGGGCGG; DNA, backbone and methylation of C not given here)” was run?
A: validated for mediating cleavage of p21 mRNA

Q: “DNAzyme 974: SEQ ID NO: 35: GGGTATGTAggctagctacaacgaATGAGGAGG (GGGTATGTAGGCTAGCTACAACGAATGAGGAGG; DNA, backbone and methylation of C not given here)” was tested. Which Validated cleavage did it give?
A: validated for mediating cleavage of p21 mRNA

Q: For “DNAzyme 1003: SEQ ID NO: 37: GCCAGAGGtccgagccggacgaGGGGGGCAG (DNA GCCAGAGGTCCGAGCCGGACGAGGGGGGCAG; DNA, backbone and methylation of C not given here)”, which Validated cleavage is on record?
A: validated for mediating cleavage of p21 mRNA

Q: With “DNAzyme 1013: SEQ ID NO: 38: TAATTCTAAggctagctacaacgaGCCAGAGGC (DNA TAATTCTAAGGCTAGCTACAACGAGCCAGAGGC; DNA, backbone and methylation of C not given here)” as the substance, how does the Validated cleavage read?
A: validated for mediating cleavage of p21 mRNA

Q: Which Validated cleavage does the source give for “DNAzyme 1116: SEQ ID NO: 41: AAAGGAGAAggctagctacaacgaACGGGAUGA (DNA AAAGGAGAAGGCTAGCTACAACGAACGGGAUGA; DNA, backbone, methylation of C and T or U not given here)” here?
A: validated for mediating cleavage of p21 mRNA

Q: With “DNAzyme 1252: SEQ ID NO: 42: GGGGGTGAAggctagctacaacgaTTCATAACC (DNA GGGGGTGAAGGCTAGCTACAACGATTCATAACC; DNA, backbone and methylation of C not given here)” as the substance, how does the Validated cleavage read?
A: validated for mediating cleavage of p21 mRNA

Q: With “DNAzyme 1455: SEQ ID NO: 45: AGGGGGGTAggctagctacaacgaCAAGAGCCA (DNA AGGGGGGTAGGCTAGCTACAACGACAAGAGCCA; DNA, backbone and methylation of C not given here)” as the substance, how does the Validated cleavage read?
A: validated for mediating cleavage of p21 mRNA

Q: With “DNAzyme 1467: SEQ ID NO: 46: TTCACAAGAggctagctacaacgaAGAGGGGGG (DNA TTCACAAGAGGCTAGCTACAACGAAGAGGGGGG; DNA, backbone and methylation of C not given here)” as the substance, how does the Validated cleavage read?
A: validated for mediating cleavage of p21 mRNA

Q: Which Validated cleavage does the source give for “DNAzyme 1504: SEQ ID NO: 47: GGGGTGGTtccgagccggacgaGCTCCAGGA (DNA GGGGTGGTTCCGAGCCGGACGAGCTCCAGGA; DNA, backbone and methylation of C not given here)” here?
A: validated for mediating cleavage of p21 mRNA

Q: For “DNAzyme 1524: SEQ ID NO: 48: GAGGGGCCAggctagctacaacgaGAGGGCAGG (DNA GAGGGGCCAGGCTAGCTACAACGAGAGGGCAGG; DNA, backbone and methylation of C not given here)”, which Validated cleavage is on record?
A: validated for mediating cleavage of p21 mRNA

Q: How did the Validated cleavage turn out when “DNAzyme 1641: SEQ ID NO: 53: AGAGGGGAAggctagctacaacgaTGCAGAGCC (DNA AGAGGGGAAGGCTAGCTACAACGATGCAGAGCC; DNA, backbone and methylation of C not given here)” was run?
A: validated for mediating cleavage of p21 mRNA

Q: Which Validated cleavage does the source give for “DNAzyme 1683: SEQ ID NO: 55: AGAGGGTAtccgagccggacgaGAAGGGAAA (DNA AGAGGGTATCCGAGCCGGACGAGAAGGGAAA; DNA, backbone and methylation of C not given here)” here?
A: validated for mediating cleavage of p21 mRNA

Q: For “DNAzyme 1684: SEQ ID NO: 56: GAGAGGGTAggctagctacaacgaTGAAGGGAA (DNA GAGAGGGTAGGCTAGCTACAACGATGAAGGGAA; DNA, backbone and methylation of C not given here)”, which Validated cleavage is on record?
A: validated for mediating cleavage of p21 mRNA

Q: With “DNAzyme 1719: SEQ ID NO: 57: GGGGTGGGAggctagctacaacgaAGGCACCTC (DNA GGGGTGGGAGGCTAGCTACAACGAAGGCACCTC; DNA, backbone and methylation of C not given here)” as the substance, how does the Validated cleavage read?
A: validated for mediating cleavage of p21 mRNA

Q: How did the Validated cleavage turn out when “DNAzyme 1736: SEQ ID NO: 58: CCATTGAGtccgagccggacgaGGGGGTGGG (DNA CCATTGAGTCCGAGCCGGACGAGGGGGTGGG; DNA, backbone and methylation of C not given here)” was run?
A: validated for mediating cleavage of p21 mRNA

These substances were tested on senescent human IMR-90 fibroblast cells (assay: not given). Conditions: not given.
Assay type: cell-based
Method: Human IMR-90, BJ, WI-38 fibroblasts and REC epithelial cells were obtained from ATCC and grown at 5% oxygen. IMR-90 and REC cells were maintained in DMEM medium comprising 100 units per ml of penicillin, […] of streptomycin and 10% fetal bovine serum. BJ and WI-38 cells were maintained in EMEM medium comprising 100 units per ml of penicillin, […] of streptomycin, 10% fetal bovine serum, 1% Pyruvate, 1% L-Glutamine, mLFs were isolated according to standard procedures [Seluanov, A., et al. J Vis Exp (2010) (44):2033] and grown at 5% oxygen. Cells were maintained in EMEM medium comprising 100 units per ml of penicillin, […] of streptomycin and 15% fetal bovine serum.
DNA damage induced senescence (DIS) was induced by etoposide treatment (E1383, Sigma) at a concentration of […] for IMR-90, BJ, and WI-38, 16 μM for mLF and 12.5 μM for REC for a duration of 48 hours. Cells acquired the senescence phenotype 7 days post treatment (determined by SA-beta-gal staining).
Oncogene Induced Senescence (OIS) was induced by means of retroviral infection with H-RasG12 (pLNCX2) at 5% oxygen. Retroviruses were packaged, and infections were performed as described below.
Replicative Induced Senescence (RIS) was induced by long-term passaging of the cells in tissue culture. Cells acquired the senescence phenotype after 40 population doublings.
Primary target cells (IMR-90, BJ, […]) were plated in 24-well plates at 100,000 cells per well. Cells were transfected with different concentrations of DNAzymes (as depicted in Table 2, below) using Lipofectamine™ 2000 (Invitrogen) according to manufacturer instructions. The percentage of survival was determined based on quantification of remaining adherent cells using PrestoBlue® reagent (A13262, Life Technologies Ltd.) relative to Lipofectamine™ only control and compared to Scramble DNAzyme (Dz_Scramble) [Scramble Arm (Scr A) sequence: ATCTTCCTFggctagctacaacgaCGCCTCTCC, SEQ ID NO: 5, or Scramble catalytic core (Scr B) sequence: AGGAGAACAacagtaactggcgacGGGATGAGG, SEQ ID NO: 86] treated cells, 3-6 days following transfection.

Q: “1872 (DNA TAACCCCATCCGAGCCGGACGACAAGGGGGC; chemistry not given here) [compound 1872]” was tested. Which Validated cytotoxicity did it give?
A: +

Q: For “1873 (DNA ATAACCCCAGGCTAGCTACAACGATCAAGGGGG; chemistry not given here) [compound 1873]”, which Validated cytotoxicity is on record?
A: +

Q: How did the Validated cytotoxicity turn out when “1938 (DNA TTTGAGGGGGGCTAGCTACAACGACAGTGTCTC; chemistry not given here) [compound 1938]” was run?
A: +

Q: How did the Validated cytotoxicity turn out when “1947 (DNA GCTGGACGAGGCTAGCTACAACGATTGAGGGGC; chemistry not given here) [compound 1947]” was run?
A: +

Q: “1967 (DNA TGGGGTGGAGGCTAGCTACAACGAGAGGAAGGT; chemistry not given here) [compound 1967]” was tested. Which Validated cytotoxicity did it give?
A: +

Q: With “1976 (DNA GGGGAGGGAGGCTAGCTACAACGAGGGGTGGAT; chemistry not given here) [compound 1976]” as the substance, how does the Validated cytotoxicity read?
A: +

Q: For “1986 (DNA GCAATGAATCCGAGCCGGACGAGGGGAGGGA; chemistry not given here) [compound 1986]”, which Validated cytotoxicity is on record?
A: +

Q: With “1991 (DNA AAAGTGCAAGGCTAGCTACAACGAGAACTGGGG; chemistry not given here) [compound 1991]” as the substance, how does the Validated cytotoxicity read?
A: +

Q: Which Validated cytotoxicity does the source give for “2200 (DNA AGGCCAGTAGGCTAGCTACAACGAGTTACAGGA; chemistry not given here) [compound 2200]” here?
A: +

Q: How did the Validated cytotoxicity turn out when “2215 (DNA GAGAGAAAAGGCTAGCTACAACGAAGTCCAGGC; chemistry not given here) [compound 2215]” was run?
A: +

Q: Which Validated cytotoxicity does the source give for “2235 (DNA ACCAGGACAGGCTAGCTACAACGAATGGGGAGC; chemistry not given here) [compound 2235]” here?
A: +

Q: For “2266 (DNA AGAGGTTTAGGCTAGCTACAACGAAGTCTAGGT; chemistry not given here) [compound 2266]”, which Validated cytotoxicity is on record?
A: +
